Reference: US7960568B2, “Heterocyclyl-substituted sulfonamides for the treatment of cognitive or food ingestion related disorders” (Laboratorios Del Dr. Esteve, S.A., priority 2007, dated 2011)
Values joined by “and” are separate entries in the source; they are usually repeats but may differ in a detail not shown here. Equal entries are not always repeated.

Target: T1, 5HT6 human recombinant receptor (Homo sapiens, UniProt P50406)
T1 construct: purchased Receptor Biology; host or cells: HEK-293 cell membranes
Test: Binding with serotonin receptor 5HT6 ([3H]-LSD radioligand, HEK-293 cell membranes)
Settings: [3H]-LSD 2.7 nM, HEK-293 membranes; for inhibition at 0.01 µM: 10 nM compound; for inhibition at 0.01 µM / inhibition at 0.1 µM: 60 min, 37° C.; for inhibition at 0.1 µM: 100 nM compound; for Ki: non-linear regression EBDA/LIGAND
Protocol: Biological Assays Binding with Serotonin Receptor 5HT6
Cell membranes of HEK-293 cells expressing the 5HT6 human recombinant receptor were supplied by Receptor Biology. In said membranes the receptor concentration is 2.18 pmol/mg protein and the protein concentration is 9.17 mg/ml. The experimental protocol follows the method of B. L. Roth et al. [B. L. Roth, S. C. Craigo, M. S. Choudhary, A. Uluer, F. J. Monsma, Y. Shen, H. Y. Meltzer, D. R. Sibley: Binding of Typical and Atypical Antipsychotic Agents to 5-Hydroxytryptamine-6 and Hydroxytriptamine-7 Receptors. The Journal of Pharmacology and Experimental Therapeutics, 1994, 268, 1403] with slight changes. The commercial membrane is diluted (1:40 dilution) with the binding buffer: 50 mM Tris-HCl, 10 mM MgCl2, 0.5 mM EDTA (pH 7.4). The radioligand used is [^3H]-LSD at a concentration of 2.7 nM with a final volume of 200 μl. incubation is initiated by adding 100 μl of membrane suspension, (≈22.9 μg membrane protein), and is prolonged for 60 minutes at a temperature of 37° C. The incubation is ended by fast filtration in a Brandel Cell Harvester through fiber glass filters made by Schleicher & Schuell GF 3362 pretreated with a solution of polyethylenimine at 0.5%. The filters are washed three times with three milliliters of buffer Tris-HCl 50 mM pH 7.4. The filters are transferred to flasks and 5 ml of Ecoscint H liquid scintillation cocktail are added to each flask. The flasks are allowed to reach equilibrium for several hours before counting with a Wallac Winspectral 1414 scintillation counter. Non-specific binding is determined in the presence of 100 μM of serotonin. Tests were made in triplicate. The inhibition constants (Ki, nM) were calculated by non-linear regression analysis using the program EBDA/LIGAND [Munson and Rodbard, Analytical Biochemistry, 1980, 107, 220].

T1 sequence (P50406 whole entry): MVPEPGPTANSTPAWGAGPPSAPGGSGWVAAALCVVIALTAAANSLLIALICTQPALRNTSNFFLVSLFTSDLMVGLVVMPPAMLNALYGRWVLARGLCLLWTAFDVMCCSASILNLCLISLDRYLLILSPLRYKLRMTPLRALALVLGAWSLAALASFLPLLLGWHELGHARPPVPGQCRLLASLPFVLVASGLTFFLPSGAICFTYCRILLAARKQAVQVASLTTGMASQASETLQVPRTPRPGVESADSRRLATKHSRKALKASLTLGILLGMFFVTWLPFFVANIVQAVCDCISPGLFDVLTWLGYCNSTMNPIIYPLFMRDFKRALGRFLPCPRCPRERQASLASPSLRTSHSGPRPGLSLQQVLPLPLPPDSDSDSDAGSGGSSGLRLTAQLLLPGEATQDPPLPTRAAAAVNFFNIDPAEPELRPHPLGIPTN

| Structure (SMILES) | inhibition at 0.01 µM [%] | inhibition at 0.1 µM [%] | Ki |
| --- | --- | --- | --- |
| CCNCCc1c[nH]c2ccc(NS(=O)(=O)c3sc4ccc(Cl)cc4c3C)cc12 [Example 1, 5-Chloro-3-methyl-benzo[b]thiophene-2-sulfonic acid [3-(2-ethylamino-ethyl)-1H-indol-5-yl]-amide] | 82.7 | 91.4 | 0.67 nM |
| CNCCc1c[nH]c2ccc(NS(=O)(=O)c3sc4ccc(Cl)cc4c3C)cc12 [Example 2, 5-Chloro-3-methyl-benzo[b]thiophene-2-sulfonic acid [3-(2-methylamino-ethyl)-1H-indol-5-yl]-amide] | 62.5 | 80.3 | 2 nM |
| CNCCc1c[nH]c2ccc(NS(=O)(=O)c3c(Cl)nc4sccn34)cc12 [Example 3, 6-Chloro-imidazo[2,1-b]thiazole-5-sulfonic acid [3-(2-methylamino-ethyl)-1H-indol-5-yl]-amide] | 47.3 | 71.8 | 4.7 nM and 3.2 nM |
| CCNCCc1c[nH]c2ccc(NS(=O)(=O)c3c(Cl)nc4sccn34)cc12 [Example 4, 6-Chloro-imidazo[2,1-b]thiazole-5-sulfonic acid [3-(2-ethylamino-ethyl)-1H-indol-5-yl]-amide] | 61.8 | 81.7 | 6.4 ± 1 nM |
| Cc1c(S(=O)(=O)Nc2ccc3[nH]cc(CCN)c3c2)sc2ccc(Cl)cc12 [Example 5, 5-Chloro-3-methyl-benzo[b]thiophene-2-sulfonic acid [3-(2-amino-ethyl)-1H-indol-5-yl]-amide] | 63.5 | 85 | 11.7 nM |
| NCCc1c[nH]c2ccc(NS(=O)(=O)c3c(Cl)nc4sccn34)cc12 [Example 6, 6-Chloro-imidazo[2,1-b]thiazole-5-sulfonic acid [3-(2-amino-ethyl)-1H-indol-5-yl]-amide] | 75.7 | 92.3 | 3.6 ± 1.4 nM |
